Laboratory results: patent publication US6462174B1, “Amorphous compound” (AstraZeneca AB, priority 2001, dated 2002)

Tests used:
[1] = Solubility in toluene (antisolvent); assay type: physicochemical
Protocol: When the volume was reduced to 100-150 ml, another portion of toluene was added and the procedure repeated.

[2] = cited from earlier work
[3] = Thermal Mechanical Analysis (TMA); assay type: physicochemical; settings: heating rate 10° C./min, 30-160° C.
Protocol: The method involves compressing 140 mg of material in a punch and die (3 mm) to 2 KN. The compressed pellet was then placed on the TMA and the 1.1 mm probe placed on the top face. A heating rate of 10° C./min was used and the sample was heated from 30-160° C.

[4] = Dynamic vapour sorption (DVS) stability test; assay type: physicochemical; settings: first sorption process (Cycle 1 Sorp), FIG. 3
[5] = Differential Scanning Calorimetry (DSC); assay type: physicochemical; settings: dry amorphous lisinopril
Protocol: Differential Scanning Calorimetry (DSC) was performed on approximately 0.5-3 mg sample, using a Mettler DSC820 instrument, according to standard methods, for example those described in Höhne et al. (1996) Differential scanning Calorimetry, Springer, Berlin.

Row | SMILES | solubility in toluene [1] | effective half-life of accumulation ([2]; multiple dosing) | time to peak serum concentrations ([2]; oral administration) [h] | glass transition temperature [3] [°C] | physical stability to water-induced crystallisation (DVS) [4] | glass transition temperature (Tg) [5] [°C]
1 | NCCCC[C@H](NC(CCc1ccccc1)C(=O)O)C(=O)N1CCC[C@H]1C(=O)O (stereo partly drawn) [lisinopril, (S)-1-[N^2-(1-carboxy-3-phenylpropyl]-L-lysyl]-L-proline] | insoluble | about 12.6 hours | ≤ 7 |  |  | 
2 | NCCCC[C@H](NC(CCc1ccccc1)C(=O)O)C(=O)N1CCC[C@H]1C(=O)O (stereo partly drawn) [amorphous lisinopril, (S)-1-[N^2-(1-carboxy-3-phenylpropyl]-L-lysyl]-L-proline] |  |  |  | 129 | no expulsion of absorbed water due to recrystallisation was observed | 125
